# Test results from PubChem BioAssay AID330 (DTP/NCI, 2004).
# Several values for one entry are separate records, joined by “and”; a condition that tells them apart may be missing. Equal entries are not always repeated. Toxic doses and inconclusive results are not listed.
# Tested on: P388 leukemia ip, CD2F1 mice, survival T/C
# Assay: NCI In Vivo Anticancer Drug Screen. Data for tumor model P388 Leukemia (intraperitoneal) in CD2F1 (CDF1) mice
# Conditions: endpoint: median survival time, higher = longer survival
# Method in brief: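 Mice carrying the transplanted tumor received test compound or vehicle. Survival was recorded in each group, and the value is the treated-group measurement divided by that of the vehicle-treated control group.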
# [1] = dose: 3.12 mg/kg/injection, schedule: Q01DX009 (ip), vehicle: water
# [2] = dose: 6.25 mg/kg/injection, schedule: Q01DX009 (ip), vehicle: water
# [3] = dose: 12.5 mg/kg/injection, schedule: Q01DX009 (ip), vehicle: water
# [4] = dose: 25.0 mg/kg/injection, schedule: Q01DX009 (ip), vehicle: water
# [5] = dose: 50.0 mg/kg/injection, schedule: Q01DX009 (ip), vehicle: water
# [6] = dose: 50.0 mg/kg/injection, schedule: Q01DX009 (ip), vehicle: saline with Tween-80
# [7] = dose: 200.0 mg/kg/injection, schedule: Q01DX009 (ip), vehicle: saline with Tween-80
# [8] = dose: 6.25 mg/kg/injection, schedule: Q01DX009 (ip), vehicle: saline with Tween-80
# [9] = dose: 50.0 mg/kg/injection, schedule: Q01DX005 (ip), vehicle: saline with Tween-80
# [10] = dose: 100.0 mg/kg/injection, schedule: Q01DX005 (ip), vehicle: saline with Tween-80
compound,measurement,setting,value
OCC1OC2OC3C(CO)OC(OC4C(CO)OC(OC5C(CO)OC(OC6C(CO)OC(OC7C(CO)OC(OC1C(O)C2O)C(O)C7O)C(O)C6O)C(O)C5O)C(O)C4O)C(O)C3O (centres undefined) (tested in a mixture with another compound),T/C,[1],105 % of control
same,T/C,[2],108 % of control
same,T/C,[3],105 % of control
same,T/C,[4],122 % of control and 111 % of control and 115 % of control
same,T/C,[5],109 % of control and 111 % of control and 123 % of control
same,T/C,"dose: 200.0 mg/kg/injection, schedule: Q01DX009 (ip), vehicle: water",164 % of control
same,T/C,"dose: 400.0 mg/kg/injection, schedule: Q01DX009 (ip), vehicle: water",250 % of control
O=c1[nH]c(N2CCNCC2)nc2ccccc12,T/C,"dose: 50.0 mg/kg/injection, schedule: Q01DX009 (ip), vehicle: saline",102 % of control
same,T/C,"dose: 100.0 mg/kg/injection, schedule: Q01DX009 (ip), vehicle: saline",101 % of control
same,T/C,"dose: 200.0 mg/kg/injection, schedule: Q01DX009 (ip), vehicle: saline",104 % of control
O=C1CC2CCCCC2CC1c1ccc(OCc2ccccc2)c(OCc2ccccc2)c1 (centres undefined),T/C,[6],91 % of control
same,T/C,"dose: 100.0 mg/kg/injection, schedule: Q01DX009 (ip), vehicle: saline with Tween-80",97 % of control
same,T/C,[7],103 % of control
CC1Cc2c([nH]c3ccc(Cl)cc23)CN1 (centres undefined),T/C,"dose: 3.12 mg/kg/injection, schedule: Q01DX009 (ip), vehicle: saline with Tween-80",106 % of control
same,T/C,[8],100 % of control
same,T/C,"dose: 12.5 mg/kg/injection, schedule: Q01DX009 (ip), vehicle: saline with Tween-80",101 % of control
same,T/C,"dose: 25.0 mg/kg/injection, schedule: Q01DX009 (ip), vehicle: saline with Tween-80",101 % of control
CC(=O)c1c(-c2ccc(-c3c[nH]c(C)c3C(C)=O)cc2)c[nH]c1C,T/C,"dose: 100.0 mg/kg/injection, schedule: Q04DX002 (ip), vehicle: saline with Tween-80",95 % of control
same,T/C,"dose: 200.0 mg/kg/injection, schedule: Q04DX002 (ip), vehicle: saline with Tween-80",91 % of control
same,T/C,"dose: 400.0 mg/kg/injection, schedule: Q04DX002 (ip), vehicle: saline with Tween-80",91 % of control
NC(CCCCCCCCCCCCC(N)C(=O)c1ccccc1)C(=O)c1ccccc1 (centres undefined),T/C,"dose: 60.0 mg/kg/injection, schedule: Q01DX005 (ip), vehicle: saline with Tween-80",101 % of control
same,T/C,"dose: 120.0 mg/kg/injection, schedule: Q01DX005 (ip), vehicle: saline with Tween-80",93 % of control
same,T/C,"dose: 240.0 mg/kg/injection, schedule: Q01DX005 (ip), vehicle: saline with Tween-80",93 % of control
CCCC(O)/C=C/C=C/C=C/C#CC#CCCCO (centres undefined),T/C,"dose: 0.25 mg/kg/injection, schedule: Q01DX005 (ip), vehicle: DMSO",105 % of control
same,T/C,"dose: 1.0 mg/kg/injection, schedule: Q01DX005 (ip), vehicle: DMSO",101 % of control and 110 % of control
same,T/C,"dose: 2.0 mg/kg/injection, schedule: Q01DX005 (ip), vehicle: DMSO",124 % of control and 96 % of control
same,T/C,"dose: 4.0 mg/kg/injection, schedule: Q01DX005 (ip), vehicle: DMSO",104 % of control
same,T/C,"dose: 8.0 mg/kg/injection, schedule: Q01DX005 (ip), vehicle: DMSO",105 % of control
CC(C)(C)SC(=S)SCC(=O)c1cc2cc(Br)ccc2o1,T/C,[9],89 % of control
same,T/C,[10],96 % of control
same,T/C,"dose: 200.0 mg/kg/injection, schedule: Q01DX005 (ip), vehicle: saline with Tween-80",93 % of control
O=C1c2cccc([N+](=O)[O-])c2C(=O)c2nccnc21,T/C,"dose: 6.0 mg/kg/injection, schedule: Q01DX005 (ip), vehicle: Klucel (hydroxypropylcellulose) (HPC)",100 % of control
same,T/C,"dose: 12.0 mg/kg/injection, schedule: Q01DX005 (ip), vehicle: Klucel (hydroxypropylcellulose) (HPC)",107 % of control
C/C(=N\NC(=O)c1ccccc1)C(=O)O,T/C,"dose: 100.0 mg/kg/injection, schedule: Q04DX002 (ip), vehicle: Klucel (hydroxypropylcellulose) (HPC)",106 % of control
same,T/C,"dose: 200.0 mg/kg/injection, schedule: Q04DX002 (ip), vehicle: Klucel (hydroxypropylcellulose) (HPC)",100 % of control
same,T/C,"dose: 400.0 mg/kg/injection, schedule: Q04DX002 (ip), vehicle: Klucel (hydroxypropylcellulose) (HPC)",99 % of control
OCC(O)C[S][Bi]([c]1ccccc1)[c]1ccccc1 (centres undefined),T/C,"dose: 60.0 mg/kg/injection, schedule: Q01DX005 (ip), vehicle: Klucel (hydroxypropylcellulose) (HPC)",116 % of control
same,T/C,"dose: 120.0 mg/kg/injection, schedule: Q01DX005 (ip), vehicle: Klucel (hydroxypropylcellulose) (HPC)",100 % of control
CC(=O)OCc1c([O-])on[n+]1-c1ccccc1,T/C,"dose: 50.0 mg/kg/injection, schedule: Q01DX005 (ip), vehicle: Klucel (hydroxypropylcellulose) (HPC)",100 % of control
same,T/C,"dose: 100.0 mg/kg/injection, schedule: Q01DX005 (ip), vehicle: Klucel (hydroxypropylcellulose) (HPC)",102 % of control
same,T/C,"dose: 200.0 mg/kg/injection, schedule: Q01DX005 (ip), vehicle: Klucel (hydroxypropylcellulose) (HPC)",102 % of control
NC(CSC(c1ccccc1)(c1ccccc1)c1ccccc1)C(=O)O (centres undefined),T/C,"dose: 1.56 mg/kg/injection, schedule: Q01DX009 (ip), vehicle: saline with Tween-80",108 % of control
same,T/C,"dose: 3.12 mg/kg/injection, schedule: Q01DX009 (ip), vehicle: Klucel (hydroxypropylcellulose) (HPC)",86 % of control
same,T/C,"dose: 6.25 mg/kg/injection, schedule: Q01DX009 (ip), vehicle: Klucel (hydroxypropylcellulose) (HPC)",121 % of control and 90 % of control
same,T/C,[8],119 % of control
same,T/C,[2],110 % of control and 118 % of control
same,T/C,"dose: 12.5 mg/kg/injection, schedule: Q01DX009 (ip), vehicle: Klucel (hydroxypropylcellulose) (HPC)",92 % of control
same,T/C,[3],118 % of control
same,T/C,"dose: 20.0 mg/kg/injection, schedule: Q01DX001 (ip), vehicle: water",104 % of control
same,T/C,"dose: 25.0 mg/kg/injection, schedule: Q01DX009 (ip), vehicle: Klucel (hydroxypropylcellulose) (HPC)",163 % of control
same,T/C,[4],168 % of control
same,T/C,"dose: 25.0 mg/kg/injection, schedule: Q01DX009 (oral), vehicle: saline with Tween-80",123 % of control
same,T/C,"dose: 40.0 mg/kg/injection, schedule: Q01DX001 (ip), vehicle: water",111 % of control
same,T/C,"dose: 40.0 mg/kg/injection, schedule: Q01DX009 (ip), vehicle: water",168 % of control and 186 % of control
same,T/C,"dose: 50.0 mg/kg/injection, schedule: Q01DX009 (ip), vehicle: Klucel (hydroxypropylcellulose) (HPC)",192 % of control
same,T/C,[6],180 % of control [middle of 5 runs]
same,T/C,[5],159 % of control and 163 % of control and 183 % of control
same,T/C,"dose: 50.0 mg/kg/injection, schedule: Q01DX009 (oral), vehicle: saline with Tween-80",119 % of control
same,T/C,"dose: 66.0 mg/kg/injection, schedule: Q04DX003 (ip), vehicle: Klucel (hydroxypropylcellulose) (HPC)",225 % of control
same,T/C,"dose: 80.0 mg/kg/injection, schedule: Q01DX001 (ip), vehicle: water",111 % of control
same,T/C,"dose: 100.0 mg/kg/injection, schedule: Q01DX009 (ip), vehicle: Klucel (hydroxypropylcellulose) (HPC)",100 % of control
same,T/C,"dose: 100.0 mg/kg/injection, schedule: Q01DX009 (oral), vehicle: saline with Tween-80",153 % of control
same,T/C,"dose: 100.0 mg/kg/injection, schedule: Q04DX003 (ip), vehicle: Klucel (hydroxypropylcellulose) (HPC)",175 % of control
same,T/C,[7],167 % of control and 175 % of control
O=c1cc(-c2ccc(OCc3ccccc3)c(-c3c(OCc4ccccc4)cc(OCc4ccccc4)c4c(=O)cc(-c5ccc(OCc6ccccc6)cc5)oc34)c2)oc2cc(OCc3ccccc3)cc(OCc3ccccc3)c12,T/C,"dose: 25.0 mg/kg/injection, schedule: Q01DX001 (ip), vehicle: saline with Tween-80",93 % of control
same,T/C,"dose: 50.0 mg/kg/injection, schedule: Q01DX001 (ip), vehicle: saline with Tween-80",89 % of control
same,T/C,"dose: 100.0 mg/kg/injection, schedule: Q01DX001 (ip), vehicle: saline with Tween-80",87 % of control
same,T/C,"dose: 200.0 mg/kg/injection, schedule: Q01DX001 (ip), vehicle: Klucel (hydroxypropylcellulose) (HPC)",89 % of control
same,T/C,"dose: 400.0 mg/kg/injection, schedule: Q01DX001 (ip), vehicle: Klucel (hydroxypropylcellulose) (HPC)",88 % of control
NC(=S=O)C(N)=S=O,T/C,[9],103 % of control and 110 % of control
same,T/C,[10],112 % of control and 117 % of control
C[n+]1c(-c2cccc(OCCCCCCCCCCCCCCCCOc3cccc(-c4c5cc(N)ccc5c5ccc(N)cc5[n+]4C)c3)c2)c2cc(N)ccc2c2ccc(N)cc21,T/C,"dose: 0.39 mg/kg/injection, schedule: Q01DX009 (ip), vehicle: water",117 % of control
same,T/C,"dose: 0.78 mg/kg/injection, schedule: Q01DX009 (ip), vehicle: water",117 % of control
same,T/C,"dose: 1.56 mg/kg/injection, schedule: Q01DX009 (ip), vehicle: water",98 % of control and 119 % of control
same,T/C,[1],113 % of control
same,T/C,[2],179 % of control
CCN(CC)CCCC(c1ccccc1)c1ccccc1,T/C,"dose: 12.5 mg/kg/injection, schedule: Q01DX005 (ip), vehicle: saline with Tween-80",99 % of control
same,T/C,"dose: 25.0 mg/kg/injection, schedule: Q01DX005 (ip), vehicle: saline with Tween-80",94 % of control
same,T/C,[9],99 % of control and 110 % of control
